The values below come from article PMC12040169 (PLOS Biology, 2025).

One data set in a line: in vitro. Also on record: Viability of infected HeLa host cells, resazurin conversion, bulk resorufin fluorescence relative to DMSO. The conditions noted are these: human, hela cells; bulk resorufin, mean of 3.
Data set [1] has as its system T1, CTL2-GFP (C. trachomatis L2/434/Bu, GFP-expressing).
T1 construct: L2/434/Bu, GFP-expressing
In words: microbe, parasite or virus in culture. Also on record: C. trachomatis growth in HeLa, dose-response, mean of bulk GFP fluorescence and imaged total inclusion area. The note with it: Chlamydia trachomatis, HeLa, 28.5 h; mean of GFP and inclusion area. The source says:
We screened a library of 36,785 small molecules displaying drug-like properties and covering a wide chemical space (Fig 1A and S2A Data). In this process, we also complemented the assay described above with an imaging-based readout (Fig 1B). After measurements of bulk GFP and resorufin fluorescence, cells were fixed, stained with the DNA dye Hoechst, and imaged at a high-content imaging platform to detect chlamydial inclusions (GFP) and host cell nuclei (Hoechst). The total area and number of inclusions in individual wells and the number of nuclei then served as additional proxies for chlamydial growth and host cell viability. […] MICs were calculated as described above.

For data set [2] the test system is unchanged. In words: microbe, parasite or virus in culture. The conditions noted are these: Chlamydia trachomatis, 28.5 h; mean of GFP and inclusion area. Further details: species or system HeLa; C. trachomatis growth in HeLa, dose-response, mean of bulk GFP fluorescence and imaged total inclusion area. In a few lines:
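Read-out combines bulk fluorescence and imaging: GFP tracks chlamydial growth, resorufin tracks host cell viability. Plates were then fixed and Hoechst-stained so inclusions and nuclei could be imaged and counted per well.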

≈ marks a conversion by molar mass, not a printed value.

`OCCNc1nc(Nc2ccc(Br)cc2)nc2ccccc12` [c17e]: in the data set “in vitro”, the viability at 28.5 h, 0.000416667 µM stood at 95.2%; the viability at 28.5 h, 0.00125 µM worked out at 87.1%; the viability at 28.5 h, 0.00375 µM was determined as 86.4%; the viability at 28.5 h, 0.0123333 µM amounted to 86.4%. In addition, in the data set “in vitro”, the viability at 28.5 h, 0.037 µM was determined as 88.2%; the viability at 28.5 h, 0.111 µM was determined as 83.5%; the viability at 28.5 h, 0.333 µM is 88.9%; the viability at 28.5 h, 1 µM turned out to be 86%. Also, in “in vitro”, the viability at 28.5 h, 3 µM came to 84.9%; the viability at 28.5 h, 10 µM was 81.2%; the viability at 28.5 h, 30 µM came to 71.2%. In data set [1], this molecule returned an IC50 of 1.24 µM. The same molecule showed an MIC in data set [2] of 3.14 µM (≈ 1.13 µg/mL).

Regarding `O=C(NCCCn1ccnc1)c1cc(-c2cccc(Br)c2)nc2ccccc12` [c50e], in “in vitro”, the viability at 28.5 h, 0.000416667 µM worked out at 90.5%; the viability at 28.5 h, 0.00125 µM is 90.8%; the viability at 28.5 h, 0.00375 µM is 90.1%; the viability at 28.5 h, 0.0123333 µM was determined as 87.8%. Besides, in the data set “in vitro”, the viability at 28.5 h, 0.037 µM worked out at 86.1%; the viability at 28.5 h, 0.111 µM came to 90.6%; the viability at 28.5 h, 0.333 µM worked out at 85.4%; the viability at 28.5 h, 1 µM came to 89.1%. Moreover, in “in vitro”, the viability at 28.5 h, 3 µM stood at 86.3%; the viability at 28.5 h, 10 µM came to 90%; the viability at 28.5 h, 30 µM was determined as 84.8%. The molecule further displayed an IC50 in data set [1] of 7.95 µM. Further, the MIC in data set [2] is 9.27 µM (≈ 4.03 µg/mL).

With `COc1ccc(CC(=O)N2CCCC(c3nc(C)c4c(n3)N(CC3CC3)CCC4)C2)cc1` (centres unmarked) [c52e], in “in vitro”, the viability at 28.5 h, 0.000416667 µM came to 85.5%; the viability at 28.5 h, 0.00125 µM was determined as 91.1%; the viability at 28.5 h, 0.00375 µM was determined as 88.5%; the viability at 28.5 h, 0.0123333 µM was found to be 92.2%. In addition, in “in vitro”, the viability at 28.5 h, 0.037 µM came out at 88.5%; the viability at 28.5 h, 0.111 µM is 91.4%; the viability at 28.5 h, 0.333 µM was found to be 88.5%; the viability at 28.5 h, 1 µM stood at 96.8%. For the same molecule, in the data set “in vitro”, the viability at 28.5 h, 3 µM stood at 90.3%; the viability at 28.5 h, 10 µM came out at 95.6%; the viability at 28.5 h, 30 µM came out at 102%. This molecule also showed a half-maximal inhibitory concentration (IC50) in data set [1] of 8.46 µM. Further, the MIC in data set [2] is 9.34 µM (≈ 4.06 µg/mL).

As to `Fc1cc(Br)c(CNCc2ncc[nH]2)c(N2CCCCC2)c1F` [c31e], in “in vitro”, the viability at 28.5 h, 0.000416667 µM turned out to be 101%; the viability at 28.5 h, 0.00125 µM turned out to be 103%; the viability at 28.5 h, 0.00375 µM is 98.4%; the viability at 28.5 h, 0.0123333 µM turned out to be 96.4%. In “in vitro”, the viability at 28.5 h, 0.037 µM worked out at 92%; the viability at 28.5 h, 0.111 µM stood at 100%; the viability at 28.5 h, 0.333 µM was 93.6%; the viability at 28.5 h, 1 µM came out at 97.6%. Also, in the data set “in vitro”, the viability at 28.5 h, 3 µM amounted to 101%; the viability at 28.5 h, 10 µM stood at 97.6%; the viability at 28.5 h, 30 µM was 102%. The molecule also yielded a concentration for half-maximal inhibition (IC50) in data set [1] of 3.12 µM. Besides, the MIC in data set [2] is 5.18 µM (≈ 1.99 µg/mL).

Take `CC(=O)Nc1ccc(-c2cccc(COC3CCN(C(=O)c4ccc(OC(C)C)cc4)CC3)c2)cc1` [c36e]: in the data set “in vitro”, the viability at 28.5 h, 0.000416667 µM was 89.8%; the viability at 28.5 h, 0.00125 µM was 85.4%; the viability at 28.5 h, 0.00375 µM stood at 90.5%; the viability at 28.5 h, 0.0123333 µM was 89%. In addition, in the data set “in vitro”, the viability at 28.5 h, 0.037 µM amounted to 91.7%; the viability at 28.5 h, 0.111 µM stood at 89.4%; the viability at 28.5 h, 0.333 µM is 94.8%; the viability at 28.5 h, 1 µM stood at 92%. In addition, in the data set “in vitro”, the viability at 28.5 h, 3 µM is 95.1%; the viability at 28.5 h, 10 µM came out at 97.8%; the viability at 28.5 h, 30 µM was found to be 116%. Besides, in data set [1], half-maximal inhibition (IC50) required 4.11 µM. Also, the MIC in data set [2] is 8.26 µM (≈ 4.02 µg/mL).

Consider `COCCNc1nc2c(c(N3CCCCCC3)n1)CCNCC2` [c18e], for which, in the data set “in vitro”, the viability at 28.5 h, 0.000416667 µM worked out at 113%; the viability at 28.5 h, 0.00125 µM turned out to be 109%; the viability at 28.5 h, 0.00375 µM was determined as 109%; the viability at 28.5 h, 0.0123333 µM worked out at 108%. Also, in “in vitro”, the viability at 28.5 h, 0.037 µM was 110%; the viability at 28.5 h, 0.111 µM is 106%; the viability at 28.5 h, 0.333 µM came out at 107%; the viability at 28.5 h, 1 µM was found to be 102%. In “in vitro”, the viability at 28.5 h, 3 µM was found to be 108%; the viability at 28.5 h, 10 µM worked out at 101%; the viability at 28.5 h, 30 µM was found to be 103%. In addition, in data set [1], the IC50 turned out to be 1.27 µM. In data set [2], the MIC is 1.94 µM (≈ 0.619 µg/mL).

Consider `CCC1C(c2ccc(C)cc2)=CCC(C(=O)NCCCN(C)C)C1C` (centres unmarked) [c30e], for which, in the data set “in vitro”, the viability at 28.5 h, 0.000416667 µM stood at 91.8%; the viability at 28.5 h, 0.00125 µM stood at 95.1%; the viability at 28.5 h, 0.00375 µM is 91.6%; the viability at 28.5 h, 0.0123333 µM was found to be 87.1%. Besides, in the data set “in vitro”, the viability at 28.5 h, 0.037 µM is 90.5%; the viability at 28.5 h, 0.111 µM was 97.1%; the viability at 28.5 h, 0.333 µM amounted to 87.9%; the viability at 28.5 h, 1 µM was determined as 92.4%. In addition, in “in vitro”, the viability at 28.5 h, 3 µM worked out at 89.5%; the viability at 28.5 h, 10 µM amounted to 94.4%; the viability at 28.5 h, 30 µM was found to be 55.5%. Further, in data set [1], the concentration for half-maximal inhibition (IC50) came to 3.07 µM. The molecule also yielded an MIC in data set [2] of 8.94 µM (≈ 3.06 µg/mL).

As for `Cc1noc(-c2ccc3c(c2O)OCCO3)c1-c1ccc(Cl)cc1` [c20e], in “in vitro”, the viability at 28.5 h, 0.000416667 µM worked out at 99.7%; the viability at 28.5 h, 0.00125 µM was 97%; the viability at 28.5 h, 0.00375 µM came to 93.1%; the viability at 28.5 h, 0.0123333 µM is 91.8%. Also, in the data set “in vitro”, the viability at 28.5 h, 0.037 µM stood at 94.3%; the viability at 28.5 h, 0.111 µM was found to be 86.5%; the viability at 28.5 h, 0.333 µM came to 88.7%; the viability at 28.5 h, 1 µM is 86.1%. In the data set “in vitro”, the viability at 28.5 h, 3 µM was found to be 83.4%; the viability at 28.5 h, 10 µM was 85.9%; the viability at 28.5 h, 30 µM stood at 75.6%. Further, in data set [1], half-maximal inhibition (IC50) required 1.39 µM. In data set [2], this molecule showed an MIC of 2.69 µM (≈ 0.926 µg/mL).

For the molecule `CN(C)c1ccc(Nc2nc(NCCO)c3ccccc3n2)cc1` [c27e], in the data set “in vitro”, the viability at 28.5 h, 0.000416667 µM is 93.3%; the viability at 28.5 h, 0.00125 µM amounted to 89.2%; the viability at 28.5 h, 0.00375 µM stood at 89.8%; the viability at 28.5 h, 0.0123333 µM was 89.3%. Also, in “in vitro”, the viability at 28.5 h, 0.037 µM came to 93.2%; the viability at 28.5 h, 0.111 µM was 89.1%; the viability at 28.5 h, 0.333 µM came out at 95.3%; the viability at 28.5 h, 1 µM was found to be 89.9%. For the same molecule, in the data set “in vitro”, the viability at 28.5 h, 3 µM came out at 103%; the viability at 28.5 h, 10 µM was determined as 99.4%; the viability at 28.5 h, 30 µM worked out at 110%. For the same molecule, the IC50 in data set [1] is 2.54 µM. Further, the MIC in data set [2] is 5.04 µM (≈ 1.63 µg/mL).

For `CC1=C(C)C(=NNC(N)=S)C(C)=C(C)C1=NNC(N)=S` [c19e], in “in vitro”, the viability at 28.5 h, 0.000416667 µM came out at 101%; the viability at 28.5 h, 0.00125 µM is 103%; the viability at 28.5 h, 0.00375 µM stood at 109%; the viability at 28.5 h, 0.0123333 µM stood at 101%. Further, in the data set “in vitro”, the viability at 28.5 h, 0.037 µM came out at 101%; the viability at 28.5 h, 0.111 µM was determined as 107%; the viability at 28.5 h, 0.333 µM is 104%; the viability at 28.5 h, 1 µM is 103%. For the same molecule, in the data set “in vitro”, the viability at 28.5 h, 3 µM was 107%; the viability at 28.5 h, 10 µM was 109%; the viability at 28.5 h, 30 µM came to 114%. This molecule showed a half-inhibitory concentration (IC50) in data set [1] of 1.39 µM. The same molecule showed an MIC in data set [2] of 3.58 µM (≈ 1.11 µg/mL).

In the case of `O=[N+]([O-])c1ccc2[nH]c3c(c2c1)CCCC3NC1CCN(CCc2ccccc2)CC1` (centres unmarked) [c23e], in the data set “in vitro”, the viability at 28.5 h, 0.000416667 µM was determined as 96.2%; the viability at 28.5 h, 0.00125 µM stood at 90.3%; the viability at 28.5 h, 0.00375 µM turned out to be 91.9%; the viability at 28.5 h, 0.0123333 µM amounted to 88%. For the same molecule, in “in vitro”, the viability at 28.5 h, 0.037 µM stood at 86.6%; the viability at 28.5 h, 0.111 µM amounted to 87.4%; the viability at 28.5 h, 0.333 µM stood at 90.5%; the viability at 28.5 h, 1 µM was 83.9%. In addition, in the data set “in vitro”, the viability at 28.5 h, 3 µM turned out to be 93.2%; the viability at 28.5 h, 10 µM is 76%; the viability at 28.5 h, 30 µM worked out at 6.18%. This molecule registered an IC50 in data set [1] of 2.18 µM. This molecule showed an MIC in data set [2] of 4 µM (≈ 1.68 µg/mL).
